The source of these data is patent US20220144853A1, “IMIDAZOLINE DERIVATIVES AS CXCR4 MODULATORS” (Université de Paris, priority 2019, published 2022).

The test system of one assay is IL-23. Nature of the assay: Cytokine production by R848-activated PBMCs, LEGENDplex Human Inflammation panel 1: IL-23. As to conditions: Homo sapiens, PBMC, PBMCs from 2 healthy donors, R848 overnight. Format: cell-based. As for the experimental part:
(§1) 2) The PBMCs used herein were prepared as described in part A “immune cells preparation”, section 2) above. PBMCs were seeded at 4.10^6/mL. […] Cells were then stimulated with the TLR7/8 agonist resiquimod—R848 (Sigma-Aldrich, MO, USA) at 5 μg/mL.
(§2) Cytokine expression levels were assessed using LEGENDplex Human inflammation panel 1 Kit (BioLegend, California, USA), which is a bead-based multiplex assay, using fluorescence-encoded beads. […] First, supernatants of R848-stimulated PBMCs were harvested after 24 h of stimulation and frozen at −20° C. for storage. Supernatants were dispensed into a 96-well V-bottom plate. Protocol pursued as per manufacturer recommendations (Manual for BioLegend LEGENDplex, Multi-Analyte Flow Assay Kit, Human Inflammation Panel 1, version 750000393_R01).

For assay [1], the system named is IFN production by activated immune cells (PBMC). Nature of the assay: IFN production by R848-activated PBMC from healthy donors, STING-37 reporter cell line. The format is cell-based, human. As to conditions: different concentrations, R848, STING-37 reporter, FIG. 1. The protocol: 1) The blood from healthy donors was obtained from two sources. Either from “Etablissement Français du Sang” (convention #07/CABANEL/106), Paris, France or from the Apheresis and Blood Donation Unit at the Institute of Transfusion Medicine and Immunogenetics (IKT), Ulm, Germany after being approved by the Institutional Review Board at Ulm University.
In vitro experiments were performed using human peripheral blood mononuclear cells (PBMCs) isolated by density centrifugation from peripheral blood leukocyte separation medium (Cambrex, Gaithersburg, Md.).
PBMCs were cultured in RPMI 1640 (Invitrogen, Gaithersburg, Md.) (R10) containing 10% heat-inactivated fetal bovine serum, 100 U/mL Penicilium and 100 μg/mL Streptomycin (1% Pen-Strep) and 1 mM glutamine (Hyclone, Logan, Utah).
1) The PBMCs used herein were prepared as described in part A “immune cells preparation”, section 1) above. PBMCs were seeded at 2.10^6/mL. […]
1) To quantify the secretion of functional IFN, a biological assay based on a stable cell line where luciferase reporter gene is controlled by five Interferon-Stimulated Response Elements (STING37 cell line) was used. […] After 24 h of culture, luciferase activity was determined by adding 50 μL of Bright-Glo reagents (Promega) to culture wells and measuring bioluminescence with a luminometer.

A further assay relates to IL-1β. Description: Cytokine production by R848-activated PBMCs, LEGENDplex Human Inflammation panel 1: IL-1β. Format: cell-based. The following applies: Homo sapiens, PBMC, PBMCs from 2 healthy donors, R848 overnight, read-out: IC50 (μM) 1L-1β. The protocol: as §1, §2
Another assay has as its system IFN-γ. Nature of the assay: Cytokine production by R848-activated PBMCs, LEGENDplex Human Inflammation panel 1: IFN-γ. The format is cell-based. As to conditions: Homo sapiens, PBMC, PBMCs from 2 healthy donors, R848 overnight. The protocol:
as §1, §2

In another assay the test system is IL-10. Description: Cytokine production by R848-activated PBMCs, LEGENDplex Human Inflammation panel 1: IL-10. The format is cell-based. As to conditions: Homo sapiens, PBMC, PBMCs from 2 healthy donors, R848 overnight. As for the experimental part: as §1, §2
Assay [2] concerns TNFα production by monocytes (CD14+ cells). Description: Requirement of CXCR4 (siRNA knockdown or AMD3100) for the effect on TNFα production by monocytes from healthy donors. The format is cell-based, human. As to conditions: AMD3100 20 μM 1 h, example 1 5 μM or example 2 1 μM, R848, FIG. 5B. As for the experimental part: Monocytes were purified from PBMCs by positive selection with the CD14 microbeads (Miltenyi Biotec) and MACS column.
1) The PBMCs used herein were prepared as described in part A “immune cells preparation”, section 1) above. PBMCs were seeded at 2.10^6/mL. […] Cells were then stimulated with the TLR7/8 agonist resiquimod—R848 (Invivogen) at 5 μg/mL. When stated, AMD (20 μM) (Sigma-Aldrich, MO, USA) was added to the cells 1 h before incubation with example 1.
Isolated monocytes were seeded at 10^5 cells/100 μL in 96-well plates and incubated at 37° C. Cyclophilin B (control) and CXCR4 small interfering RNA (siRNA) (Smart Pool, Dharmarcon) was diluted in DOTAP (Roche Applied Sciences). The mix was gently mixed and incubated at room temperature for 15 minutes. After incubation, the mix was added to cells in culture at a final concentration of 160 nM. Finally, cells were incubated at 37° C. for 24 hours before stimulation.
R848-stimulated PBMCs were washed in PBS and then incubated with a viability stain (Zombie-Aqua, Biolegend) for 30 min at 4° C. After washing, the cells were resuspended in PBS containing 2% FCS and 2 mM EDTA and stained with the extracellular mix using APC-anti-BDCA4 (clone 12C2), FITC-anti-CD123 (clone 6H6), PerCP.cy5.5-anti-CD56 (clone 5.1H11), BV421-anti-HLADR (clone L243), PE.cy7-anti-CD19 (clone 4G7), APC-cy.7-anti-CD14 (clone M5E2) all from Biolegend and used at 1/200 and V500-anti-CD3 (BD Bioscience, clone SP34-2, 1/200). For the TNFα intracellular staining a Fixation/Permeabilization Solution Kit (BD Cytofix/Cytoperm) was used according to the manufacturer's protocol. Briefly, the cells were fixed for 10 min at 4° C. with 100 μL of the Fixation/Permeabilization solution then washed and stained in 100 μL of the BD Perm/Wash Buffer containing TNFα-APC (Miltenyi, 1/500) antibody for 1 h at 4° C. Data acquisition was performed on a Canto II flow cytometer using Diva software (BD Biosciences, San Jose, Calif.). FlowJo software (Treestar, Ashland, Oreg.) was used to analyze data.

For another assay, the system named is TNF-α. Description: Cytokine production by R848-activated PBMCs, LEGENDplex Human Inflammation panel 1: TNF-α. The format is cell-based. As to conditions: Homo sapiens, PBMC, PBMCs from 2 healthy donors, R848 overnight. As for the experimental part: as §1, §2

SMILES strings stand for the structures. Counter-ions that a name gives are not always drawn.

On to `CC1(C)CN2C(CSC3=NCC(C)(C)N3)=CSC2=N1` [Example 2, 3-(((5,5-dimethyl-4,5-dihydro-1H-imidazol-2-yl)thio)methyl)-6,6-dimethyl-5,6-dihydroimidazo[2,1-b]thiazole dihydrochloride], for which the IC50 in the assay with IL-23 is 4.7 µM; with IL-1β, 32 µM; in the assay with IFN-γ, 26 µM; in the assay with IL-10, 9.1 µM; in the assay on TNF-α it was 46 µM. The “reduction of IFN production by activated PBMCs” value in assay [1] is 100%. In addition, the “TNFα production by activated monocytes in the presence of the example after pre-incubation with AMD3100” value in assay [2] is given as “restored”.
